Entries after “also recorded” stand apart in the source; their conditions may differ. Like-named read-outs stand apart in the source and are kept apart here.
Key:
DT-Diaphorase (DTD) = DT-Diaphorase (DTD) (Homo sapiens, UniProt P15559); assay: Suitability as substrate for DTD (activation by DTD); assay type: biochemical
Source text: The results of these tests are set out in Table 2.

clinical = assay: clinical; set-up: species or system human; conditions: in vivo; for half-life: iv
Description: RH-1 is activated by NAD(P)H: Quinone acceptor oxidoreductase (NQO1; DT-diaphorase, DTD). DTD is often over-expressed in lung, colon, liver and breast tumours. RH-1 is undergoing Phase I trial at the Christie Hospital, UK. The pharmacokinetic (PK) requirements of this trial required assays that detect nM levels of RH-1 in serum using LC-MS. The extraction and quantitation of RH-1 from human plasma was validated and a limit of detection of 1 ng/ml reached.
(§1) RH1 was administered intravenously on a daily schedule for 5 day periods following a dose escalation scheme. Treatment was repeated on a 21 day cycle. A dose escalation scheme was used to try to establish dose-limiting toxicity. Predicted toxicity includes myelosuppression, emesis, renal toxicity and local injection site irritation. Safety and tolerability were monitored each cycle. Anti-tumour response was assessed after each 2 cycles using RECIST criteria.
Patients lymphocytes exposed to RH1 on infusion were analysed using the comet-X assay, which detects DNA interstrand cross-links.

[1] = system: DNA of peripheral blood lymphocytes; assay: Comet-X assay of patients' peripheral blood lymphocytes in the Phase I trial; assay type: in vivo, human
Source text: A modified version of the single cell gel electrophoresis comet assay, the Comet-X, specifically detects DNA cross-linking in individual cells and has been validated for clinical trial use. 9 patients have been treated with RH-1 and PMBCs (peripheral blood lymphocytes) isolated from pre-infusion and post infusion time points on both day 1 and day 5 of treatment were subjected to Comet-X assay (FIG. 2). From the data obtained, accumulative DNA damage appears to be occurring in PBMC's over the 5 day infusion period leading to significant DNA cross linking (30%) by day 5 (FIG. 3). Other PD (pharmacodynamic) assays used in the trial include assessment of DTD levels and activity and RFLP genotyping of the NQO1 gene.
(§2) The Comet assay is a sensitive method of detecting DNA breaks in single cells. The cells are embedded in agarose and spread onto microscope slides. After lysis and de-proteinisation, the cells are subjected to alkaline unwinding at high pH (12.5). The DNA becomes relaxed and unwinds at points where DNA single and double strand breaks occur. The cells are then finally subjected to micro-electrophoresis during which relaxed and damaged DNA migrates away from the nucleus resulting in the classic comet shape when visualised under microscopy. This migration of DNA is retarded when the DNA has been subjected to interstrand cross-linking by drugs such as RH1. In the comet-X assay used in this trial, control non-drug treated lymphocytes from the patient's pre-infusion are subjected to gamma radiation to introduce a fixed number of DNA breaks into each cell. This treatment results in a fixed amount of migration under electrophoresis quantified as the percentage (%) of DNA in the tail of the comet image. Patients lymphocytes exposed to RH1 on infusion are collected and irradiated with the same dose of gamma radiation as the control pre-infusion lymphocytes. It was expected that interstrand cross-links produced by RH1 will retard the migration of DNA during electrophoresis resulting in less DNA in the tail of the comet compared to the irradiation only controls. Results are expressed as % DNA cross linked.
To date 12 patients have been treated with RH1 and peripheral blood lymphocytes isolated from pre-infusion and post infusion time points on both day 1 and day 5 of treatment. These lymphocytes have been subjected to the Comet-X assay described above and the amount of DNA present in the tail of the comets following irradiation has been measured. Internal QC samples have been run each time a patients samples have been processed. The data has been pooled into exposure times (short 5-10 minutes, medium 40-120 minutes and long 4-24 hrs exposure) and dose cohorts, (1) 40-135 μg/m^2, (2) 200-326 μg/m^2, (3) 410-810 μg/m^2, and (4) […] ranges for ease of analysis.

[2] = system: DNA of human lymphocytes (PBLs); assay: RH1 drug dosimetry in human lymphocytes in vitro (Comet-X assay); assay type: cell-based
Description: Optimal DNA cross-linking is shown in the range 50 to 100 nM RH1.
as §2, with “It was expected that interstrand cross-links produced by RH1 will retard the migration of DNA during electrophoresis resulting in less DNA in the tail of the comet compared to the irradiation only controls.” left out, “linked. […]” for “linked.”

solid tumours = assay: Phase I clinical trial: safety, tolerability and anti-tumour response; assay type: in vivo, human
Source text: The RH1 trial involved administering RH1 to patients having histologically proven solid tumours that were refractory to conventional treatment or for whom no conventional treatment exists. The WHO performance status of these patients was 0 or 1. WHO performance status is an indicator of a patients overall level of well being/activity. A WHO performance status of 0 means that the patient is fully active, able to carry out all normal activity, without restriction. A WHO performance status of 1 means the patient is restricted in physically strenuous activity but ambulatory and able to carry out work of a light or sedentary nature, e.g. light house work, office work.
as §1

skin biopsy lesions = assay: Comet-X assay on skin biopsy lesions; assay type: in vivo, human; conditions: highest cohort treated
physchem [3] = conditions: 25 °C, aqueous buffer
physchem [4] = conditions: buffer, pH 7

Sequence of DT-Diaphorase (DTD) (P15559 whole entry): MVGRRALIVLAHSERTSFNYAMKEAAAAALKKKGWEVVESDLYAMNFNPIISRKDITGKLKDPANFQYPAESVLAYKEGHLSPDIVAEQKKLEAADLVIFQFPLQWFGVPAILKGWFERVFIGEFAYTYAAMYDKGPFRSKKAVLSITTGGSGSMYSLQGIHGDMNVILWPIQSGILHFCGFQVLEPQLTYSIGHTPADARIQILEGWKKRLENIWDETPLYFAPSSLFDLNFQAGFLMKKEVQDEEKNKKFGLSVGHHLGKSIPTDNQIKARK

SMILES: Cn1c(/C=C/CO)c(CO)c2c1C(=O)C=C(N1CC1)C2=O [E09, 3-HYDROXYMETHYL-5-AZIRIDINYL-1METHYL-2-[1H-INDOLE-4,7-DIONE]-PROPANOL]
- DTD substrate (DT-Diaphorase (DTD)): Moderate

SMILES: CO[C@@]12[C@H](COC(N)=O)C3=C(C(=O)C(C)=C(N)C3=O)N1C[C@@H]1N[C@@H]12 [Mitomycin C]
- DTD substrate (DT-Diaphorase (DTD)): Poor
- DTD substrate (DT-Diaphorase (DTD); listed as mitomycin C): relatively poor substrate

SMILES: CC1=C(N2CC2)C(=O)C(CO)=C(N2CC2)C1=O [RH1, 2,5-diaziridinyl-3-hydroxymethyl-6-methyl-1,4-benzoquinone]
- DTD substrate (DT-Diaphorase (DTD)): excellent substrate
- DTD substrate (DT-Diaphorase (DTD); listed as RH-1): good substrate
- Clearance saturability (clinical; human): did not appear to be saturable
- half-life (clinical; human, half-life (clearance from the blood)): ~6 min
- half-life (clinical; human, plasma half-life): 2 to 12 min
- relationship between drug dose and area under the curve (clinical): linear relationship
- cross-linking on day 5 compared with day 1 ([1]; all patients, statistical analysis): significantly more cross-linking
- DNA cross linking in PBMCs ([1]; by day 5 of the 5 day infusion period): 30%
- % DNA in the tail (distribution peak) ([1]; day 1, similar to irradiated control): 70-80%
- % DNA in the tail (distribution peak) ([1]; day 5, PBLC population): 60-70%
- degree of cross-linking in PBMCs, highest cohort ([1]; highest cohort (1080-1095 mg/m^2), day 5): 15-20%
- DNA cross-linking, medium dose cohort ([1]; medium dose cohort, day 1 (particularly 4 hr, 24 hr samples) and throughout day 5): evidence of DNA cross-linking
- DNA cross-linking, low dose cohort ([1]; pooled data, low dose cohort, day 1 or day 5): no DNA cross-linking
- dose response of DNA cross-linking ([2]; PBLs treated 5-100 nM RH1, 2 hours, 37° C., concentration increased to 50 nM): increase in DNA cross-linking
- RH1 concentration range of optimal DNA cross-linking ([2]; human lymphocytes, Comet-X, FIG. 1): 50 to 100 nM
- toxicity, patient 5 (solid tumours; patient 005, 265 μg/m^2/d): grade I thrombocytopenia; also recorded: grade I renal impairment
- toxicity, patient 007 (solid tumours; patient 007, dose level 7): evidence of toxicity
- treatment-related toxicity, first 4 patients (solid tumours; patients 001-004, 40-200 μg/m^2/d i.v. daily x5): no treatment-related toxicity
- Comet-X result on skin biopsy lesions (skin biopsy lesions): demonstrate efficacy
- solubility (physchem [3]): > 500 µg/mL
- half-life (physchem [4]): > 48 h

SMILES: CCOC(=O)NC1=C(N2CC2)C(=O)C(NC(=O)OCC)=C(N2CC2)C1=O [AZQ, 3,6-diaziridinyl-2,5-bis-(carboethoxyamino)1,4-benzoquinone]
- DTD substrate (DT-Diaphorase (DTD)): Moderate

SMILES: O=C1C(NCCO)=C(N2CC2)C(=O)C(NCCO)=C1N1CC1 [BZQ, 3,6-diaziridinyl-2,5-bis-2(-hydroxyethylamino)1,4-benzoquinone]
- DTD substrate (DT-Diaphorase (DTD)): Poor

— US20070203109A1, “Compounds And Compositions For Treatment Of Cancer” (priority 2004, published 2007)
